We go through 50 compounds from PubChem BioAssay AID488844 (Broad Institute, 2010).

Several values for one entry are separate records, joined by “and”; a condition that tells them apart may be missing. Equal values may be shown once. Activity calls are given as the source filed them.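 Rule for the calls: active = compounds raising protection with a fitted AC50 no more than tenfold their highest valid tested dose; inconclusive = flat curve with partial protection, or unreliable curve fit; inactive = the rest.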

Experiment [1] can be described thus: beta-cell survival under cytokine stress – INS-1E, ATP luminescence, dry powder, dose response (AID 488844). The following applies: INS-1E cytokine-induced death rescue, ATP luminescence, 48 h.
For experiment [2], the system named is INS-1E cytokine-induced death rescue, ATP luminescence, 48 h. The description is as above.

As to `C[C@@H]1CN([C@@H](C)CO)C(=O)c2cccc(NS(=O)(=O)c3ccccc3)c2O[C@H]1CN(C)Cc1ccc(C(F)(F)F)cc1`, the protection from cytokine death in experiment [1] (at 26 µM (top of the series)) is -9.86% (inactive).

As for `COc1ccc(S(=O)(=O)Nc2cccc3c2O[C@@H](CN(C)S(=O)(=O)c2ccc(OC)cc2)[C@H](C)CN([C@@H](C)CO)C3=O)cc1`, in experiment [1] (at 26 µM (top of the series)), the protection from cytokine death was -0.665% (inactive).

On to `COc1ccc(S(=O)(=O)N(C)C[C@@H]2Oc3c(NC(=O)Nc4cccc5ccccc45)cccc3C(=O)N([C@@H](C)CO)C[C@H]2C)cc1OC`, for which, in experiment [1] (at 26 µM (top of the series)), the protection from cytokine death was 34.5% (inactive).

Consider `C[C@@H]1CN([C@@H](C)CO)C(=O)c2cccc(NC(=O)Nc3cccc4ccccc34)c2O[C@H]1CN(C)S(=O)(=O)c1cccs1`, for which the protection from cytokine death in experiment [1] (at 26 µM (top of the series)) was -2.28% (inactive).

In the case of `C[C@H]1CN([C@@H](C)CO)C(=O)c2cccc(NC(=O)NC3CCCCC3)c2O[C@@H]1CN(C)S(C)(=O)=O`, the protection from cytokine death in experiment [1] (at 26 µM (top of the series)) is -7.31% (inactive).

In the case of `N#Cc1ccc2cc(Br)c(C(F)(F)P(=O)(O)O)cc2c1`, in experiment [1] (at 26 µM (top of the series)), the protection from cytokine death was -34.9% (inactive).

For `COc1ccc(S(=O)(=O)N(C)C[C@@H]2Oc3c(NC(=O)Nc4ccc(C(F)(F)F)cc4)cccc3C(=O)N([C@@H](C)CO)C[C@H]2C)cc1`, the protection from cytokine death in experiment [1] (at 26 µM (top of the series)) was 7.51% (inactive).

Consider `COc1ccc(S(=O)(=O)N(C)C[C@@H]2Oc3c(NC(=O)Nc4c(C)noc4C)cccc3C(=O)N([C@@H](C)CO)C[C@H]2C)cc1`, for which the protection from cytokine death in experiment [1] (at 26 µM (top of the series)) was -2.07% (inactive).

As for `COc1ccc(S(=O)(=O)N(C)C[C@@H]2Oc3c(NS(=O)(=O)c4ccccc4)cccc3C(=O)N([C@@H](C)CO)C[C@H]2C)cc1`, the protection from cytokine death in experiment [1] (at 26 µM (top of the series)) was 4.09% (inactive).

As for `COc1ccc(S(=O)(=O)N(C)C[C@@H]2Oc3c(NC(=O)c4ccc(-c5nccs5)cc4)cccc3C(=O)N([C@@H](C)CO)C[C@H]2C)cc1`, the protection from cytokine death in experiment [1] (at 26 µM (top of the series)) is 12.6% (inactive).

Turning to `COc1ccc(S(=O)(=O)N(C)C[C@@H]2Oc3c(NC(=O)NC4CCCCC4)cccc3C(=O)N([C@@H](C)CO)C[C@H]2C)cc1`, the protection from cytokine death in experiment [1] (at 26 µM (top of the series)) was 7.69% (inactive).

For the compound `C[C@@H]1CN([C@@H](C)CO)C(=O)c2cccc(NC(=O)Nc3cccc4ccccc34)c2O[C@H]1CN(C)C(=O)Nc1ccc(F)cc1`, the protection from cytokine death in experiment [1] (at 26 µM (top of the series)) is -27.4% (inactive).

Regarding `COc1ccc(S(=O)(=O)N(C)C[C@@H]2Oc3c(NS(=O)(=O)c4ccc(F)cc4)cccc3C(=O)N([C@@H](C)CO)C[C@H]2C)cc1`, in experiment [1] (at 26 µM (top of the series)), the protection from cytokine death is 8.48% (inactive).

In the case of `COc1ccc(NC(=O)N(C)C[C@@H]2Oc3c(NC(=O)Nc4cccc5ccccc45)cccc3C(=O)N([C@@H](C)CO)C[C@H]2C)cc1`, the protection from cytokine death in experiment [1] (at 26 µM (top of the series)) was -28.7% (inactive).

For `COc1ccc(S(=O)(=O)N(C)C[C@@H]2Oc3c(NS(=O)(=O)c4cn(C)cn4)cccc3C(=O)N([C@@H](C)CO)C[C@H]2C)cc1`, the protection from cytokine death in experiment [1] (at 26 µM (top of the series)) was -12.2% (inactive).

On to `COc1ccc(S(=O)(=O)N(C)C[C@@H]2Oc3c(NC(=O)NC(C)C)cccc3C(=O)N([C@@H](C)CO)C[C@H]2C)cc1`, for which the protection from cytokine death in experiment [1] (at 26 µM (top of the series)) is -1.33% (inactive).

One may read the AC50 as the concentration giving half of the maximal activity seen. As to `Cc1ccc(S(=O)(=O)N(C)C[C@@H]2Oc3c(NC(=O)Nc4cccc5ccccc45)cccc3C(=O)N([C@H](C)CO)C[C@H]2C)cc1`, the AC50 in experiment [2] was > 23.5 µM (inactive).

`COc1ccc(S(=O)(=O)N(C)C[C@@H]2Oc3c(NC(=O)c4ccncc4)cccc3C(=O)N([C@@H](C)CO)C[C@H]2C)cc1`: the protection from cytokine death in experiment [1] (at 26 µM (top of the series)) was 0.628% (inactive).

As to `COc1ccccc1S(=O)(=O)N(C)C[C@@H]1Oc2c(NC(=O)Nc3cccc4ccccc34)cccc2C(=O)N([C@@H](C)CO)C[C@H]1C`, the protection from cytokine death in experiment [1] (at 26 µM (top of the series)) is -1.88% (inactive).

Turning to `COc1ccc(NC(=O)Nc2cccc3c2O[C@@H](CN(C)S(=O)(=O)c2ccc(OC)cc2)[C@H](C)CN([C@@H](C)CO)C3=O)cc1`, the protection from cytokine death in experiment [1] (at 26 µM (top of the series)) was 13.4% (inactive).

In the case of `C[C@@H]1CN([C@@H](C)CO)C(=O)c2cccc(NC(=O)Nc3cccc4ccccc34)c2O[C@H]1CN(C)C(=O)Nc1ccccc1`, the protection from cytokine death in experiment [1] (at 23.5 µM (top of the series)) is -1.63% (inactive).

As to `COc1ccc(S(=O)(=O)N(C)C[C@@H]2Oc3c(NC(=O)c4cnccn4)cccc3C(=O)N([C@@H](C)CO)C[C@H]2C)cc1`, the protection from cytokine death in experiment [1] (at 26 µM (top of the series)) is 6.69% (inactive).

As for `C[C@@H]1CN([C@@H](C)CO)C(=O)c2cccc(NC(=O)Nc3cccc4ccccc34)c2O[C@H]1CN(C)CC1CC1`, the protection from cytokine death in experiment [1] (at 26 µM (top of the series)) is -29.1% (inactive).

On to `Cc1ccc(S(=O)(=O)N(C)C[C@H]2Oc3c(NC(=O)Nc4cccc5ccccc45)cccc3C(=O)N([C@@H](C)CO)C[C@@H]2C)cc1`, for which, in experiment [1] (at 26 µM (top of the series)), the protection from cytokine death was -9.39% (inactive).

In the case of `COc1ccc(S(=O)(=O)N(C)C[C@@H]2Oc3c(NC(=O)C4CCCCC4)cccc3C(=O)N([C@@H](C)CO)C[C@H]2C)cc1`, the protection from cytokine death in experiment [1] (at 26 µM (top of the series)) is -8.99% (inactive).

As to `COc1ccc(S(=O)(=O)N(C)C[C@@H]2Oc3c(NC(=O)Nc4ccccc4)cccc3C(=O)N([C@@H](C)CO)C[C@H]2C)cc1`, in experiment [2], the AC50 was > 26 µM (inactive).

`COc1ccc(S(=O)(=O)N(C)C[C@@H]2Oc3c(NC(=O)C4CC4)cccc3C(=O)N([C@@H](C)CO)C[C@H]2C)cc1`: in experiment [1] (at 23.5 µM (top of the series)), the protection from cytokine death is 1.51% (inactive).

In the case of `COc1ccc(S(=O)(=O)N(C)C[C@@H]2Oc3c(NS(C)(=O)=O)cccc3C(=O)N([C@@H](C)CO)C[C@H]2C)cc1`, in experiment [1] (at 26 µM (top of the series)), the protection from cytokine death was -4.24% (inactive).

As for `COc1ccc(S(=O)(=O)N(C)C[C@@H]2Oc3c(NC(=O)Nc4cccc5ccccc45)cccc3C(=O)N([C@H](C)CO)C[C@@H]2C)cc1`, the protection from cytokine death in experiment [1] (at 26 µM (top of the series)) was 13.8% (inactive).

Turning to `C[C@@H]1CN([C@@H](C)CO)C(=O)c2cccc(NC(=O)Nc3cccc4ccccc34)c2O[C@H]1CN(C)C(=O)NC1CCCCC1`, the protection from cytokine death in experiment [1] (at 26 µM (top of the series)) was -35.9% (inactive).

On to `COc1ccc(S(=O)(=O)N(C)C[C@@H]2Oc3ccc(NC(=O)Nc4cccc5ccccc45)cc3C(=O)N([C@@H](C)CO)C[C@H]2C)cc1`, for which the protection from cytokine death in experiment [1] (at 26 µM (top of the series)) was -13.2% (inactive).

Take `C[C@@H]1CN([C@@H](C)CO)C(=O)c2cccc(NC(=O)Nc3cccc4ccccc34)c2O[C@H]1CN(C)S(=O)(=O)c1ccc2c(n1)N(C)CCO2`: the protection from cytokine death in experiment [1] (at 26 µM (top of the series)) is 22.7% (inactive).

For `C[C@@H]1CN([C@@H](C)CO)C(=O)c2cccc(NC(=O)Nc3cccc4ccccc34)c2O[C@H]1CN(C)C(=O)Nc1ccc(C(F)(F)F)cc1`, the protection from cytokine death in experiment [1] (at 23.5 µM (top of the series)) is -33.2% (inactive).

Regarding `C[C@@H]1CN([C@@H](C)CO)C(=O)c2cccc(NC(=O)Nc3cccc4ccccc34)c2O[C@H]1CN(C)S(=O)(=O)c1cccc(F)c1`, in experiment [1] (at 26 µM (top of the series)), the protection from cytokine death was -13.6% (inactive).

On to `COc1ccc(S(=O)(=O)N(C)C[C@@H]2Oc3c(NC(=O)Nc4ccc5c(c4)OCO5)cccc3C(=O)N([C@@H](C)CO)C[C@H]2C)cc1`, for which the protection from cytokine death in experiment [1] (at 26 µM (top of the series)) was 9.8% (inactive).

Take `C[C@@H]1CN([C@@H](C)CO)C(=O)c2cccc(NC(=O)Nc3cccc4ccccc34)c2O[C@H]1CN(C)S(=O)(=O)c1ccc2c(c1)oc(=O)n2C`: the protection from cytokine death in experiment [1] (at 26 µM (top of the series)) is 4.91% (inactive).

With `C[C@@H]1CN([C@@H](C)CO)C(=O)c2cccc(NC(=O)Nc3cccc4ccccc34)c2O[C@H]1CN(C)S(=O)(=O)c1cn(C)cn1`, the protection from cytokine death in experiment [1] (at 26 µM (top of the series)) is -7.7% (inactive).

For `C[C@@H]1CN([C@@H](C)CO)C(=O)c2cccc(NC(=O)Nc3cccc4ccccc34)c2O[C@H]1CN(C)S(C)(=O)=O`, the protection from cytokine death in experiment [1] (at 26 µM (top of the series)) is -4.98% (inactive).

Take `C[C@@H]1CN([C@@H](C)CO)C(=O)c2cccc(NC(=O)Nc3cccc4ccccc34)c2O[C@H]1CN(C)C(=O)Nc1ccc2c(c1)OCO2`: the protection from cytokine death in experiment [1] (at 26 µM (top of the series)) was -28.7% (inactive).

With `COc1ccc(S(=O)(=O)N(C)C[C@@H]2Oc3c(NC(=O)c4cccc5ccccc45)cccc3C(=O)N([C@@H](C)CO)C[C@H]2C)cc1`, the protection from cytokine death in experiment [1] (at 26 µM (top of the series)) is 1.13% (inactive).

In the case of `C[C@@H]1CN([C@@H](C)CO)C(=O)c2cccc(NC(=O)Nc3cccc4ccccc34)c2O[C@H]1CN(C)S(=O)(=O)c1ccccc1F`, the protection from cytokine death in experiment [1] (at 26 µM (top of the series)) was -7.82% (inactive).

For `COc1ccc(S(=O)(=O)N(C)C[C@@H]2Oc3c(NC(=O)c4nc5ccccc5s4)cccc3C(=O)N([C@@H](C)CO)C[C@H]2C)cc1`, in experiment [1] (at 26 µM (top of the series)), the protection from cytokine death was -19.4% (inactive).

Regarding `C[C@@H]1CN([C@@H](C)CO)C(=O)c2cccc(NC(=O)Nc3cccc4ccccc34)c2O[C@H]1CN(C)S(=O)(=O)c1ccccc1`, the protection from cytokine death in experiment [1] (at 26 µM (top of the series)) was 16.5% (inactive).

As for `C[C@@H]1CN([C@@H](C)CO)C(=O)c2cccc(NC(=O)Nc3cccc4ccccc34)c2O[C@H]1CN(C)S(=O)(=O)c1ccc2c(c1)OCCO2`, the AC50 in experiment [2] is 1.62 µM and 4.81 µM.

For `Cc1noc(C)c1NC(=O)N(C)C[C@@H]1Oc2c(NC(=O)Nc3cccc4ccccc34)cccc2C(=O)N([C@@H](C)CO)C[C@H]1C`, the protection from cytokine death in experiment [1] (at 26 µM (top of the series)) was -14.9% (inactive).

As for `COc1ccc(S(=O)(=O)N(C)C[C@@H]2Oc3c(NC(=O)C4CCOCC4)cccc3C(=O)N([C@@H](C)CO)C[C@H]2C)cc1`, in experiment [1] (at 23.5 µM (top of the series)), the protection from cytokine death is 6.47% (inactive).

Take `CNC[C@@H]1Oc2c(NC(=O)Nc3cccc4ccccc34)cccc2C(=O)N([C@@H](C)CO)C[C@H]1C`: the protection from cytokine death in experiment [1] (at 26 µM (top of the series)) is -5.76% (inactive).

`C[C@@H]1CN([C@@H](C)CO)C(=O)c2cccc(NC(=O)Nc3cccc4ccccc34)c2O[C@H]1CN(C)S(=O)(=O)c1ccc2c(c1)OCCCO2`: the protection from cytokine death in experiment [1] (at 26 µM (top of the series)) was 25.8% (inactive).

With `COc1ccc(S(=O)(=O)N(C)C[C@@H]2Oc3c(cccc3N(C)C)C(=O)N([C@@H](C)CO)C[C@H]2C)cc1`, the protection from cytokine death in experiment [1] (at 23.5 µM (top of the series)) is -5.24% (inactive).

Consider `C[C@@H]1CN([C@@H](C)CO)C(=O)c2cccc(NC(=O)Nc3cccc4ccccc34)c2O[C@H]1CN(C)S(=O)(=O)c1ccc(OC(F)(F)F)cc1`, for which, in experiment [1] (at 26 µM (top of the series)), the protection from cytokine death is -128% (inactive).
